Two substances from patent publication US8343991B2, “Anhydrous crystalline vinflunine salts, method of preparation and use thereof as a drug and means of vinflunine purification” (Pierre Fabre Medicament, priority 2007, dated 2013) can be followed below.

Data set [1] is described as follows: Comparative stability of amorphous ditartrate and crystalline fumarate, powder form, HPLC analysis. The class given is physicochemical. Conditions: for degradation in powder form: 14 days. The method, then:
Comparative stability of amorphous ditartrate and crystalline fumarate:
1. Raw material: • Batch OP3.0B: amorphous vinflunine ditartrate. • Batch JLM4008400: crystalline vinflunine fumarate.
(§1) 2. Stability conditions: • Stability studies are carried out on the powder form away from light under the following conditions: • closed bottle: 50° C., • open bottle: 40° C., 75% relative humidity. • A measurement is taken at T0 and at T0+14 days.
3. Analytical conditions: • HPLC system: • Column: Sunfire C18, 5 μm, 4.6×250 mm (Waters) temperature maintained at 35° C. • Eluent: CH3CN/MeOH/H2O/KH2PO4 400/150/450/6.8 (ml/ml/ml/g) adjusted to pH 7 (with KOH). • Flow rate: 1 ml/min • Detection: 269 nm

The nature of data set [2]: Water content of the powder in the comparative stability study. The class given is physicochemical. The method, then:
as §1

Setting [3] is: T0 + 14 d, 40° C., 75% RH, open bottle, powder away from light.
[4] abbreviates: T0 + 14 d, 50° C., closed bottle, powder away from light.
The mark [5] stands for this setting: in the presence of moisture (40° C., 75% RH).
[6] abbreviates: T0 + 14 d, 40° C., 75% RH, open bottle.

For the substance vinflunine ditartrate [OP3.OB], the “degradation in powder form” value in data set [1] (50° C. (closed bottle)) amounted to 2.1%; in data set [1] (setting [5]), 1.07%. Also, the HPLC analysis in data set [1] (setting [3]) is listed as 98.21%; in data set [1] (setting [4]), 97.18%; in data set [1] (T0, powder, before storage) it was 99.28%. In addition, the Water content in data set [2] (T0) was 6.27%; in data set [2] (setting [6]) it was 10.18%.

As for vinflunine fumarate [JLM4008400], the “degradation in powder form” value in data set [1] (50° C. (closed bottle)) and in data set [1] (setting [5]) was “less than 0.2%” throughout. Also, the HPLC analysis in data set [1] (setting [3]) was 99.38%; in data set [1] (setting [4]), 99.56%; in data set [1] (T0, powder, before storage), 99.52%. The Water content in data set [2] (T0) is 1.33%; in data set [2] (setting [6]), 4.18%.
